The record followed here is patent US11040963B2 (priority 2017, dated 2021).

Data set [1] has as its target HA H1 A/California/07/09 (Influenza A virus (A/California/07/2009(H1N1)), UniProt C3W5X2). Kind of data set: biochemical. As to conditions: Competition binding (AlphaLISA), pIC50 H1 A/California/07/09.
The target of data set [2] is HA H1 A/New Caledonia/20/99 (Influenza A virus (A/New Caledonia/20/1999(H1N1)), UniProt Q6WG00). Kind of data set: biochemical. The settings on record: Competition binding (AlphaLISA), pIC50 H1 A/New Caledonia/20/99. A general note: Bead proximity is the source of the signal in Alpha formats.
The target of data set [3] is HA H5 A/Vietnam/1203/04 (Influenza A virus (A/Vietnam/1203/2004(H5N1)), UniProt Q5EP31). The data set is described as follows: biochemical. As to conditions: Competition binding (AlphaLISA), pIC50 H5 A/Vietnam/1203/04.
A further data set concerns H1N1 A/California/07/09. The data set is described as follows: microbe, parasite or virus in culture. Type of data set: cell-based, influenza A virus. As to conditions: Influenza A virus, H1N1, MDCK, 96 h, read-out: Virus neutralization assay (VNA), pEC50 H1N1 A/California/07/09 (converted).
In data set [4] the test system is H1N1 A/New Caledonia/20/99. Kind of data set: microbe, parasite or virus in culture. Type of data set: cell-based, influenza A virus. The settings on record: Influenza A virus, H1N1, MDCK, 96 h, read-out: Virus neutralization assay (VNA), pEC50 H1N1 A/New Caledonia/20/99 (converted).
The next data set relates to H5N1 A/Vietnam/1203/04. Kind of data set: microbe, parasite or virus in culture. Type of data set: cell-based, influenza A virus. The settings on record: Influenza A virus, H5N1, MDCK, 96 h, read-out: Virus neutralization assay (VNA), pEC50 H5N1 A/Vietnam/1203/04, MDCK cells, 96 h, CPE by ATPlite (converted); average of repeats. Background: In ATP-based viability assays light output follows the ATP content of the culture.

Another data set in a line: in vitro. As to conditions: dog, Cytotoxicity (pCC50) MDCK.

Broadly, the IC50 is the concentration at which inhibition is half-maximal. Read a low IC50 as greater potency in that assay. As a reminder, the CC50 is the concentration at which the toxic effect on the cells reaches its halfway point. On to `COc1nnc(C(c2ccccc2)N2CCN(C(=O)c3cc(-c4nc5cc(OC(F)(F)F)ccc5o4)ccn3)CC2)o1` (stereo not shown) [Example 21], for which the IC50 is 15.8 nM in data set [1], 20 nM in data set [2] and 794 nM in data set [3]. The EC50 is 100 nM in the data set on H1N1 A/California/07/09, 79.4 nM in data set [4] and 6310 nM in the data set on H5N1 A/Vietnam/1203/04. Further, the midpoint of cytotoxicity in the data set “in vitro”, the CC50, lay at 12600 nM.

Regarding `COC(=O)C(c1ccccc1)N1CCN(C(=O)c2cccc(-c3nc4cc(OC(F)(F)F)ccc4o3)c2)CC1` (stereo not shown) [Example 23], the IC50 in data set [1] is 20 nM; in data set [2] it was 10 nM; in data set [3], 398 nM. The figures for the EC50 (with H1N1 A/California/07/09; in data set [4]; in the data set on H5N1 A/Vietnam/1203/04) were 158 nM, 126 nM and 20000 nM, respectively. The molecule also showed a CC50 in the data set “in vitro” of more than 50100 nM.

As to `COC(=O)C(c1ccccc1)N1CCN(C(=O)c2cccc(-c3nc4ncccc4o3)c2)CC1` (stereo not shown) [Example 24], the IC50 was 63.1 nM in data set [1], 39.8 nM in data set [2] and 3160 nM in data set [3]. In addition, the EC50 in the data set with H1N1 A/California/07/09 is 158 nM; in data set [4], 126 nM; in the data set with H5N1 A/Vietnam/1203/04, 12600 nM. The same molecule gave a 50% cytotoxic concentration (CC50) in “in vitro” of more than 50100 nM.

Regarding `COc1ccc2oc(-c3ccnc(C(=O)N4CCN(C(c5ccccc5)c5nnc(C)o5)CC4)c3)nc2c1` (stereo not shown) [Example 25], the values for the IC50 in data set [1], in data set [2] and in data set [3] were 15.8 nM, 25.1 nM and 794 nM, respectively. For the same molecule, the EC50 in the data set with H1N1 A/California/07/09 was 63.1 nM; in data set [4], 79.4 nM; in the data set with H5N1 A/Vietnam/1203/04, 3980 nM. Moreover, the CC50 in “in vitro” is 25100 nM.

For the molecule `COC(=O)[C@@H](c1ccccc1)N1CCN(C(=O)c2cccc(-c3nc4cc(C(F)(F)F)ccc4o3)c2)CC1` [Example 26], the IC50 is 25.1 nM in data set [1], 20 nM in data set [2] and 501 nM in data set [3]. Moreover, the EC50 is 158 nM with H1N1 A/California/07/09, 158 nM in data set [4] and 7940 nM in the data set on H5N1 A/Vietnam/1203/04. Moreover, the CC50 in the data set “in vitro” is more than 50100 nM.

As for `Cc1nnc(C(c2ccccc2)N2CCN(C(=O)c3cc(-c4nc5cc(OC(F)(F)F)ccc5o4)ccn3)CC2)o1` (stereo not shown) [Example 28], the IC50 in data set [1] is 15.8 nM; in data set [2], 20 nM; in data set [3], 501 nM. Moreover, the EC50 is 200 nM in the data set with H1N1 A/California/07/09, 158 nM in data set [4] and 3980 nM in the data set on H5N1 A/Vietnam/1203/04. The molecule also had a CC50 in the data set “in vitro” of 15800 nM.

On to `COC(=O)C(c1ccccc1)N1CCN(C(=O)c2cccc(-c3nc4cc(O)ccc4o3)c2)CC1` (stereo not shown) [Example 30], for which the IC50 in data set [1] is 25.1 nM; in data set [2], 25.1 nM; in data set [3], 631 nM. Also, the EC50 was 251 nM with H1N1 A/California/07/09, 158 nM in data set [4] and 7940 nM in the data set on H5N1 A/Vietnam/1203/04. The midpoint of cytotoxicity in “in vitro”, the CC50, lay at 25100 nM.

For `COC(=O)C(c1ccccc1)N1CCN(C(=O)c2cccc(-c3nc4ccccc4o3)c2)CC1` (stereo not shown) [Example 31], the IC50 is 31.6 nM in data set [1], 25.1 nM in data set [2] and 1260 nM in data set [3]. The values for the EC50 (with H1N1 A/California/07/09; in data set [4]; in the data set with H5N1 A/Vietnam/1203/04) were 316 nM, 158 nM and 7940 nM, respectively. The same molecule displayed a cytotoxic concentration (CC50) in the data set “in vitro” of more than 50100 nM.

Turning to `Cc1nnc([C@@H](c2ccccc2)N2CCN(C(=O)c3cccc(-c4nc5c(C)cccc5o4)c3)CC2)o1` [Example 32], the IC50 was 63.1 nM in data set [1], 79.4 nM in data set [2] and 3980 nM in data set [3]. In addition, the values for the EC50 (with H1N1 A/California/07/09; in data set [4]; in the data set with H5N1 A/Vietnam/1203/04) were 316 nM, 158 nM and 25100 nM, respectively. Also, the CC50 in the data set “in vitro” is 15800 nM.

`COC(=O)[C@@H](c1ccccc1)N1CCN(C(=O)c2cccc(-c3nc4ccccc4s3)c2)CC1` [Example 33]: the IC50 in data set [1] is 50.1 nM; in data set [2], 31.6 nM; in data set [3], 398 nM. Further, the figures for the EC50 (in the data set on H1N1 A/California/07/09; in data set [4]; in the data set on H5N1 A/Vietnam/1203/04) were 501 nM, 158 nM and 7940 nM, respectively. For the same molecule, in “in vitro”, it took 39800 nM to reach half-maximal cytotoxicity (CC50).

In the case of `O=C(c1cc(-c2nc3cc(C(F)(F)F)ccc3o2)ccn1)N1CCN(C(c2ccccc2)c2nnc(C3CC3)o2)CC1` (stereo not shown) [Example 34], the IC50 in data set [1] was 31.6 nM; in data set [2], 63.1 nM; in data set [3], 1260 nM. Further, the EC50 is 126 nM in the data set with H1N1 A/California/07/09, 251 nM in data set [4] and 12600 nM with H5N1 A/Vietnam/1203/04. Further, in the data set “in vitro”, the CC50 was 39800 nM.

Regarding `Cc1nnc(C(c2ccccc2)N2CCN(C(=O)c3cccc(-c4nc5cc(N(C)C)ccc5o4)c3)CC2)o1` (stereo not shown) [Example 35], the IC50 in data set [1] was 15.8 nM; in data set [2] it was 15.8 nM; in data set [3], 631 nM. Moreover, the EC50 is 200 nM in the data set on H1N1 A/California/07/09, 158 nM in data set [4] and 6310 nM with H5N1 A/Vietnam/1203/04. In the data set “in vitro”, this molecule gave a CC50 of 25100 nM.

In the case of `COc1ccc2oc(-c3cccc(C(=O)N4CCN(C(c5ccccc5)c5nnc(C)o5)CC4)c3)nc2c1` (stereo not shown) [Example 36], the IC50 was 25.1 nM in data set [1], 25.1 nM in data set [2] and 1000 nM in data set [3]. Also, the EC50 in the data set on H1N1 A/California/07/09 is 158 nM; in data set [4], 126 nM; in the data set with H5N1 A/Vietnam/1203/04, 7940 nM. In the data set “in vitro”, the CC50 is 20000 nM.

For the molecule `COC(=O)[C@@H](c1ccccc1)N1CCN(C(=O)c2cccc(-c3nc4cc(C(F)(F)F)ccc4o3)c2)[C@H](C)C1` [Example 37], the IC50 in data set [1] was 63.1 nM; in data set [2] it was 50.1 nM; in data set [3], 1580 nM. In addition, the values for the EC50 (in the data set with H1N1 A/California/07/09; in data set [4]; with H5N1 A/Vietnam/1203/04) were 251 nM, 251 nM and 31600 nM, respectively. The same molecule yielded a CC50 in “in vitro” of more than 50100 nM.

`Cc1nnc([C@@H](c2ccccc2)N2CCN(C(=O)c3cccc(-c4ncc5ccccc5n4)c3)CC2)o1` [Example 38]: the figures for the IC50 in data set [1], in data set [2] and in data set [3] were 50.1 nM, 50.1 nM and 2000 nM, respectively. In addition, the EC50 was 316 nM in the data set on H1N1 A/California/07/09, 200 nM in data set [4] and 7940 nM in the data set with H5N1 A/Vietnam/1203/04. The same molecule registered a CC50 in the data set “in vitro” of more than 50100 nM.

For the molecule `CNc1ccc2oc(-c3cccc(C(=O)N4CCN(C(c5ccccc5)c5nnc(C)o5)CC4)c3)nc2c1` (stereo not shown) [Example 39], the IC50 in data set [1] was 25.1 nM; in data set [2], 31.6 nM; in data set [3] it was 1580 nM. Moreover, the EC50 is 316 nM in the data set on H1N1 A/California/07/09, 200 nM in data set [4] and 10000 nM in the data set on H5N1 A/Vietnam/1203/04. The molecule also showed a CC50 in “in vitro” of 15800 nM.

As for `Cc1nnc(C(c2ccccc2)N2CCN(C(=O)c3cc(-c4nc5cc(C(F)(F)F)ccc5o4)ccn3)CC2)o1` (stereo not shown) [Example 40], the IC50 was 31.6 nM in data set [1], 50.1 nM in data set [2] and 1260 nM in data set [3]. Also, the EC50 with H1N1 A/California/07/09 is 158 nM; in data set [4], 251 nM; with H5N1 A/Vietnam/1203/04, 10000 nM. The molecule also had a CC50 in the data set “in vitro” of 12600 nM.

For `COC(=O)C(c1ccccc1)N1CCN(C(=O)c2cccc(-c3nc4cc(C(F)(F)F)ccc4o3)c2)CC1` (stereo not shown) [Example 42], the results for the IC50 in data set [1], in data set [2] and in data set [3] were 39.8 nM, 39.8 nM and 1000 nM, respectively. For the same molecule, the EC50 is 316 nM in the data set with H1N1 A/California/07/09, 251 nM in data set [4] and 15800 nM with H5N1 A/Vietnam/1203/04. This molecule also registered a CC50 in “in vitro” of more than 50100 nM.

With `COC(=O)C(c1ccccc1)N1CCN(C(=O)c2cccc(-c3nc4ccncc4o3)c2)CC1` (stereo not shown) [Example 43], the IC50 in data set [1] is 31.6 nM; in data set [2], 25.1 nM; in data set [3], 1260 nM. Further, the EC50 with H1N1 A/California/07/09 is 398 nM; in data set [4] it was 251 nM; in the data set on H5N1 A/Vietnam/1203/04, 10000 nM. The molecule further had a CC50 in the data set “in vitro” of more than 50100 nM.
